Assay results published in patent publication US5863918A, “Naphthalene derivatives” (Fujisawa Pharmaceutical Co., Ltd., priority 1994, dated 1999).
Counter-ions that a name gives are not always drawn. One block for each compound: values may come before it.

Key:
[1] = test system: human platelet aggregation induced by ADP; test: Inhibition of human platelet aggregation induced by ADP; format: cell-based; settings: ADP 2.5 μM, platelet rich plasma, mean ± S.E.
Protocol: Human blood was obtained from healthy volunteers and mixed with 1/10 volume of 3.8% sodium citrate, pH 7.4. The citrate blood was centrifuged at 150×g for 10 minutes and the platelet rich plasma (PRP) was removed. The remaining blood was centrifuged for a further 10 minutes at 1500×g to prepare the platelet poor plasma (PPP), which was used as a reference for platelet aggregation. Aggregation studies were carried out using HEMATRACER 801 (NBS, Japan), a 8 channel aggregometer. 25 μl of sample solution and 225 μl of PRP were mixed and stirred at 1000 rpm for 2 minutes at 37° C. Aggregation was induced by ADP solution at the final concentration of 2.5 μM.

[2] = test system: mean arterial blood pressure in conscious rats; test: Effect on mean arterial blood pressure in conscious rats; format: in vivo, rat (male Sprague-Dawley); settings: 10 mg/kg; intravenous (femoral vein)
Protocol: Male Sprague-Dawley rats, aged 8-9 weeks, were anesthetized with ether. A polyethylene cannula filled with heparin solution was inserted into the femoral artery of the rats to measure mean blood pressure. Mean blood pressure was measured with a pressure transducer and recorded on a polygraph. The test compound dissolved in ethanol, polyethylene glycol and distilled water (1:1:1) was administered through a polyethylene cannula inserted into the femoral vein in a volume of 1 ml/kg. Intravenous hypotensive effect of the test compound was expressed as the maximal decrease (R max). Briefly, R max was expressed as maximal % change compared to mean blood pressure prior to the administration of the test compound.

human IP receptor = test: Receptor binding assay ([^3 H]-iloprost binding to human IP receptor expressed in COS7); settings: test compound 1×10^-6 M; 10 nM [^3 H]-iloprost; 60 minutes, 30° C.
Protocol: cDNA of human IP receptor was cloned and expressed in COS7 using pCDM8 vector in a similar manner to that described in the literatures [J. Biol. Chem., Vol. 269, No. 16, pp.12173-12178 (1994): Circulation, Vol. 90, No. 4, pp1643-1647 (1994) FEBS Letters 344 (1994) 74-78].
After transfection, cells which expressed human IP receptor were collected with ce l scraper at 4° C. and stored in -80° C.
The composition of assay buffer was as follows: 20 mM MES (pH 6.0), 10 mM MgCl2, 1 mM EDTA, and 0.1 mM PMSF. Frozen cells were thawed and aliquots (4.5×10^5 cells) were incubated for 60 minutes under shaking at 30° C. in plastic tubes in 100 μl of assay buffer with 10 nM of [^3 H]-iloprost in the presence or absence of the test compound (1×10^-6 M).
To determine the non-specific binding, iloprost at 10 μM was added. Each assay was preformed in duplicate. Reaction mixture was filtered through a Whatman GF/C glass filter to stop the reaction. After washing the filter with ice-cold assay buffer, the radioactivity of the filter was countered. Non-specific binding was subtracted from total binding to yield specific binding. The effect of the test compound was expressed as % inhibition of specific [^3 H]-iloprost binding.

SMILES: O=C(O)COc1cccc2c1CCC(O)(COC(=O)N(c1ccccc1)c1ccccc1)C2 (stereo not shown) [Test compound (1), Sodium salt of [5-(carboxymethoxy)-2-hydroxy-1,2,3,4-tetrahydro-2-naphthyl]methyl N,N-diphenylcarbamate]
inhibition at 0.1 µM ([1]; 1.0 × 10^-7 M): 97 ± 1.2%
R max (%): maximal decrease (maximal % change compared to mean blood pressure prior to administration) [2]: 27.5%

Inhibition (%) of specific [^3 H]-iloprost binding (human IP receptor): 96.5%
SMILES: O=C(O)COc1cccc2c1CC[C@](O)(COC(=O)N(c1ccccc1)c1ccccc1)C2 [Sodium salt of (2R)-[5-(carboxymethoxy)-2-hydroxy-1,2,3,4-tetrahydro-2-naphthyl]methyl N,N-diphenylcarbamate]

SMILES: O=C(O)COc1cccc2c1CCC(Cn1nc(C(c3ccccc3)c3ccccc3)ccc1=O)C2 (stereo not shown) [Test compound (2), 2-[(1,2,3,4-Tetrahydro-5-carboxymethoxy-2-naphthyl)methyl]-6-diphenylmethyl-3(2H)-pyridazinone]
inhibition at 1 µM ([1]; 1.0 × 10^-6 M): 100 ± 0.4%
